# Measured values from PMC11345841, “Exploring 2-Sulfonylpyrimidine Warheads as Acrylamide Surrogates for Targeted Covalent Inhibition: A BTK Story” (Journal of Medicinal Chemistry, 2024).
# Read-outs that look alike come from different tables or passages of the source.
# Experiments:
# [1] = biological target: T1, ABL1(Q252H)-nonphosphorylated (Homo sapiens, UniProt P00519, Q252H); test: KINOMEscan ScanTK; type: binding
# T1 construct: purchased Eurofins DiscoverX KINOMEscan (scanTK)
# [2] = biological target: T2, EPHA2 (Homo sapiens, UniProt P29317); test: KINOMEscan ScanTK; type: binding
# T2 construct: purchased Eurofins DiscoverX KINOMEscan (scanTK)
# T2 sequence (P29317 24-976): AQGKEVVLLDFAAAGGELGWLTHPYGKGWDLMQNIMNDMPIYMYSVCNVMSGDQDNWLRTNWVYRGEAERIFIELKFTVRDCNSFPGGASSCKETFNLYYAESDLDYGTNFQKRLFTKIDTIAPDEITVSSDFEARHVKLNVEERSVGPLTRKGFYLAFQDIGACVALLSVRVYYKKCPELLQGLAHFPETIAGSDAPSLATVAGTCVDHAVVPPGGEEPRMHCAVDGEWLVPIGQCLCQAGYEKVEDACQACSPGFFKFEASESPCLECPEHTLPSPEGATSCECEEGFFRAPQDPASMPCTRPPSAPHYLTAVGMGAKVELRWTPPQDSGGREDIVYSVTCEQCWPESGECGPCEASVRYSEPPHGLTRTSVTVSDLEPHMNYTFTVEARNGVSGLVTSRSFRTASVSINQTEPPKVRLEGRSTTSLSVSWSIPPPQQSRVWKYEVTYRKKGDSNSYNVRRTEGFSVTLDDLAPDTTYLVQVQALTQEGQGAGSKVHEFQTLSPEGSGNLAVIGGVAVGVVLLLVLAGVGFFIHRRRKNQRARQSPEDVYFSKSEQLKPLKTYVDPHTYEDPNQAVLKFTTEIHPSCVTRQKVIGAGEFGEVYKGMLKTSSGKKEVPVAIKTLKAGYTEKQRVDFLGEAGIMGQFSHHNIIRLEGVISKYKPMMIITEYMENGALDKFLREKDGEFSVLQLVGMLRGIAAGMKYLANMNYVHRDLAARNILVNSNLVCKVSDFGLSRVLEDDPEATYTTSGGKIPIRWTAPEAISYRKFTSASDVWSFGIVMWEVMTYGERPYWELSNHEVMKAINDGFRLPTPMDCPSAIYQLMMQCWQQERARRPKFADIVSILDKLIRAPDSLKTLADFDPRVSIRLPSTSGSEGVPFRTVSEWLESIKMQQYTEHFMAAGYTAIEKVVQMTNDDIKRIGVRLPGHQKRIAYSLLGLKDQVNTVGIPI
# [3] = biological target: T3, FGR (Homo sapiens, UniProt P09769); test: KINOMEscan ScanTK; type: binding
# T3 construct: purchased Eurofins DiscoverX KINOMEscan (scanTK)
# T3 sequence (P09769 whole entry): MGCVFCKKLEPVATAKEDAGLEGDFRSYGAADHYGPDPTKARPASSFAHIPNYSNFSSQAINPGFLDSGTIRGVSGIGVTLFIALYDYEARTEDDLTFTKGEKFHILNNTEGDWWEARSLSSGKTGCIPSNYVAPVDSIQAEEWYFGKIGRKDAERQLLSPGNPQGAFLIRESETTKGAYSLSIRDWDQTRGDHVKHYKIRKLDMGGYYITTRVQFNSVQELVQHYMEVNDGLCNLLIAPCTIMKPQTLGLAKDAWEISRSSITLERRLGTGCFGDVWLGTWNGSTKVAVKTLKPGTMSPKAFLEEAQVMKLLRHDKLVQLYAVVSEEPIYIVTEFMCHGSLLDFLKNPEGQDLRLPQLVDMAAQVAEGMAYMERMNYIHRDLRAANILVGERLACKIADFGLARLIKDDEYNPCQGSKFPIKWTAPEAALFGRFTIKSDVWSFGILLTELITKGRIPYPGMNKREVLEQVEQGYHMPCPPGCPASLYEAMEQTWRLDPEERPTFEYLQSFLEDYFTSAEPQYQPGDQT
# [4] = test system: FLT3(ITD); test: KINOMEscan ScanTK; type: binding; conditions: for %Control / % difference (compound - Ib %Control): @1000nM
# [5] = test system: FLT3(ITD,F691L); test: KINOMEscan ScanTK; type: binding; conditions: for %Control / % difference (compound - Ib %Control): @1000nM
# [6] = biological target: T4, KIT (Homo sapiens, UniProt P10721); test: KINOMEscan ScanTK; type: binding
# T4 construct: purchased Eurofins DiscoverX KINOMEscan (scanTK)
# T4 sequence (P10721 26-976): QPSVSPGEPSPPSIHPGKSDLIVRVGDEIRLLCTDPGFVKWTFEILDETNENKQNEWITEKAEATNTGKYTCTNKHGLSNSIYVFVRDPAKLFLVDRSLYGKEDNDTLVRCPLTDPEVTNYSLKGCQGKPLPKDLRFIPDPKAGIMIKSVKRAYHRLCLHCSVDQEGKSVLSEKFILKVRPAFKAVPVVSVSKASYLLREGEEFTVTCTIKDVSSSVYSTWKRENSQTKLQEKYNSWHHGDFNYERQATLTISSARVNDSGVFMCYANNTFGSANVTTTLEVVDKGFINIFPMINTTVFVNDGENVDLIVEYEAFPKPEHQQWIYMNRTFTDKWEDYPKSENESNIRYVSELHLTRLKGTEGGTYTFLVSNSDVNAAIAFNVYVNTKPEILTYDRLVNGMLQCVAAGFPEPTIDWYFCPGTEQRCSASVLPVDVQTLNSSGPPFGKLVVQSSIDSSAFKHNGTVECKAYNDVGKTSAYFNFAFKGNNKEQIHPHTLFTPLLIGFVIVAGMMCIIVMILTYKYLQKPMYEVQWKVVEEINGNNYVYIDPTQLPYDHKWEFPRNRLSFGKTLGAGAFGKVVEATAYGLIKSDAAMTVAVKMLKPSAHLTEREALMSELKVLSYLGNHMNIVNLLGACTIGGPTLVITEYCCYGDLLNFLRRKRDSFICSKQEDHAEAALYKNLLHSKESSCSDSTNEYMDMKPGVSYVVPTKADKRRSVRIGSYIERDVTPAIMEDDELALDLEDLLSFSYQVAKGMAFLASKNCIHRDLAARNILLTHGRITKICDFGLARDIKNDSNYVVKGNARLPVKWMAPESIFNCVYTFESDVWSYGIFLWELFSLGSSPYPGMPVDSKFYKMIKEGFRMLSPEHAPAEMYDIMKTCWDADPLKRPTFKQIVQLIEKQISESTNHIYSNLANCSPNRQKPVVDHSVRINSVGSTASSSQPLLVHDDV
# [7] = biological target: T5, TYRO3 (Homo sapiens, UniProt Q06418); test: KINOMEscan ScanTK; type: binding
# T5 construct: purchased Eurofins DiscoverX KINOMEscan (scanTK)
# T5 sequence (Q06418 41-890): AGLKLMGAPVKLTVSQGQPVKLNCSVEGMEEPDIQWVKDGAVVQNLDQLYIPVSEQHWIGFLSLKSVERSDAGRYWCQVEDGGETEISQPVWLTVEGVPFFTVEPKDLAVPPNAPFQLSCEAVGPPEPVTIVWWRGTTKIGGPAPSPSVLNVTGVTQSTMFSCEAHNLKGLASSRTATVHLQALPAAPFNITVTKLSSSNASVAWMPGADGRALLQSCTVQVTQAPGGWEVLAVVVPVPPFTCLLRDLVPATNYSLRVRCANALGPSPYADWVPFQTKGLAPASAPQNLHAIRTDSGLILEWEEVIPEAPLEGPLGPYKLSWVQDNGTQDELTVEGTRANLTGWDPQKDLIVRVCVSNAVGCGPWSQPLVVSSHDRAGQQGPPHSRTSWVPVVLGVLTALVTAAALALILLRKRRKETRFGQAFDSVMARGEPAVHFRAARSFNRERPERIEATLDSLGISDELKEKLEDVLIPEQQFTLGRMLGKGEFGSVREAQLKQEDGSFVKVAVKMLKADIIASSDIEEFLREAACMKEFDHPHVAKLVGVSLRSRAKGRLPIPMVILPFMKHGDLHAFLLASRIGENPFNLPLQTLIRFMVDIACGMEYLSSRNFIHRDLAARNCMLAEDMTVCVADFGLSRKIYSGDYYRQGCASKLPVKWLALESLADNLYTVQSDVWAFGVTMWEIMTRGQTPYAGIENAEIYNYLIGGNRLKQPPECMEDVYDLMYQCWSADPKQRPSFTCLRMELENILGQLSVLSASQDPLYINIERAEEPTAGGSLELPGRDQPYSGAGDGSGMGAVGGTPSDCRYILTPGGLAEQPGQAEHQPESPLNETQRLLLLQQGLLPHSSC
# [8] = biological target: T6, BTK (Homo sapiens, UniProt Q06187); test: KINOMEscan ScanTK; type: binding; conditions: for remaining binding at 1 µM: BTK; for inhibition at 1 µM: ScanTK
# T6 construct: purchased Eurofins DiscoverX KINOMEscan (scanTK)
# T6 sequence (Q06187 whole entry): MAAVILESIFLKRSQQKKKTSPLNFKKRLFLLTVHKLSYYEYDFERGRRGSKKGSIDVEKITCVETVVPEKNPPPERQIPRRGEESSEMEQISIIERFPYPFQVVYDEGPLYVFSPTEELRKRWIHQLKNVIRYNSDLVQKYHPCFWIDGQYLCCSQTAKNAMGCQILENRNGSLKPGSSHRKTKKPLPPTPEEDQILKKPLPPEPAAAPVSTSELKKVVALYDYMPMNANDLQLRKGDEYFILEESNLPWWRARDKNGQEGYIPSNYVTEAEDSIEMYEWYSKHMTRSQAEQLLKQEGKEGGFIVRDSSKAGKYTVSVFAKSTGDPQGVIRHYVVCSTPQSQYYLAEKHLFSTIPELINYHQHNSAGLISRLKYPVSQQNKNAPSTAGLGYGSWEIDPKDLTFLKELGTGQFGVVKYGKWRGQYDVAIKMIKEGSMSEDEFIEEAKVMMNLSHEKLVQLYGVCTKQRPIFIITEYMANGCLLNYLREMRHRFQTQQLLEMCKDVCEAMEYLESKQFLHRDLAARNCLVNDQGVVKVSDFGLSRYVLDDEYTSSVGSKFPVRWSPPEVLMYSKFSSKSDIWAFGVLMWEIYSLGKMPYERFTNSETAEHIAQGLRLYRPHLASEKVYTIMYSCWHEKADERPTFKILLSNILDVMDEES
# [9] = biological target: T7, TNK2 (Homo sapiens, UniProt Q07912); test: KINOMEscan ScanTK; type: binding
# T7 construct: purchased Eurofins DiscoverX KINOMEscan (scanTK)
# T7 sequence (Q07912 whole entry): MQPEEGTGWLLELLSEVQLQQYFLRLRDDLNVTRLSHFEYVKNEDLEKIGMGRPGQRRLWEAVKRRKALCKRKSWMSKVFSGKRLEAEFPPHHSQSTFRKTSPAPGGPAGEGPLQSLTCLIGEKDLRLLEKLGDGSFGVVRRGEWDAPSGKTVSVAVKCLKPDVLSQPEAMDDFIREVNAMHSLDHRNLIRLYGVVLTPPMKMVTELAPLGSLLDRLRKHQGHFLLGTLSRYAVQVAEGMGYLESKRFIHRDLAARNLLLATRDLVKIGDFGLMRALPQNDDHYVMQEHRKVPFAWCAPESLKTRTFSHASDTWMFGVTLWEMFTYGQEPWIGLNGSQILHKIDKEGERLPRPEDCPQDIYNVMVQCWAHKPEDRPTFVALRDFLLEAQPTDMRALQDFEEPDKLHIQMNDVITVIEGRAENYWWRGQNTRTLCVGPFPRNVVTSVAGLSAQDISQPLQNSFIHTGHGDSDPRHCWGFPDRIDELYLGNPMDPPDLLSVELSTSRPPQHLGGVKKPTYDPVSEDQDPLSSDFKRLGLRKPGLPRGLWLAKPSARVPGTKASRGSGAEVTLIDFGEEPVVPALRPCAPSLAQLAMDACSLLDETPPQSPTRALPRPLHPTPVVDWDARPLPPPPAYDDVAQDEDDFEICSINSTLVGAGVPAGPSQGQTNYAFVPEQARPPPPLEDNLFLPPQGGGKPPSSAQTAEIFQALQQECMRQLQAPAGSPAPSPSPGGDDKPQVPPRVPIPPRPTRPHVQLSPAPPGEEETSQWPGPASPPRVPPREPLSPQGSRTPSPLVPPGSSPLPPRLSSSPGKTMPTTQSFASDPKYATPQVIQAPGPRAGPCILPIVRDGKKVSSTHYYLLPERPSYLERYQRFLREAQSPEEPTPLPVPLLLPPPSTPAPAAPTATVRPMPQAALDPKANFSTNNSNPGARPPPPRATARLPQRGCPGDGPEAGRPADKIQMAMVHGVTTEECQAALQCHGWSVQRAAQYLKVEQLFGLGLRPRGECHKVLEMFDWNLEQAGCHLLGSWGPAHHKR
# [10] = biological target: T8, ITK, full length (Homo sapiens, UniProt Q08881); test: PhosphoSens enzymatic IC50 (AssayQuant)
# T8 sequence (Q08881 1-620): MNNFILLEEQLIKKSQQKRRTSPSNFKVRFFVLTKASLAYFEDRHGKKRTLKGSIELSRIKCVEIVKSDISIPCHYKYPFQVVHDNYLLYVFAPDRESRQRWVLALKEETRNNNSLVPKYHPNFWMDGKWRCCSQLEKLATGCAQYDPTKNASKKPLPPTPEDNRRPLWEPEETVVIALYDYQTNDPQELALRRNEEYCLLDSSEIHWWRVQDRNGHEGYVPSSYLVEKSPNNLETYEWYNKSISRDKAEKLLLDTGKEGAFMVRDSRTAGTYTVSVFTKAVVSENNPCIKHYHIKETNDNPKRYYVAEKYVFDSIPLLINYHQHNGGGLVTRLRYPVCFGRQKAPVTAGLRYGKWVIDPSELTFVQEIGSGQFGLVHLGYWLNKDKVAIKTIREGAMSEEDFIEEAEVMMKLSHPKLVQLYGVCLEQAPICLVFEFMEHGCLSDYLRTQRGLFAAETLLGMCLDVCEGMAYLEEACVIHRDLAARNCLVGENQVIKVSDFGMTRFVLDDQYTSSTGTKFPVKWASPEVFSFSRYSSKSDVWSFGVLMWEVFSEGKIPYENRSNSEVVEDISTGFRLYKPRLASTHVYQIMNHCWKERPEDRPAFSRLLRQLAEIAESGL
# From the text: Biochemical enzymatic IC50 data were generated by AssayQuant Technologies (Marlborough, MA) using the PhosphoSens Platform. […] Reaction rate versus log [inhibitor concentration] data were fitted to the four-parameter logistic equation [drawing 1]
# [11] = @1000nM, read-out: % difference (compound - Ib %Control)
SMILES,"remaining binding at 1 µM ([1]; @1000nM, read-out: %Control)",remaining binding at 1 µM ([1]; read-out: %Control @1000nM),"remaining binding at 1 µM ([2]; @1000nM, read-out: %Control)",remaining binding at 1 µM ([2]; read-out: %Control @1000nM),%Control @1000nM [4],%Control [4],%Control @1000nM [5],%Control [5],"remaining binding at 1 µM ([6]; @1000nM, read-out: %Control)",remaining binding at 1 µM ([6]; read-out: %Control @1000nM),"remaining binding at 1 µM ([7]; @1000nM, read-out: %Control)",remaining binding at 1 µM ([7]; read-out: %Control @1000nM),difference in %Control versus reference compound Ib at 1 µM ([1]; @1000nM),"remaining binding at 1 µM [8, 11]","remaining binding at 1 µM ([8]; @1000nM, read-out: %Control)",remaining binding at 1 µM ([8]; read-out: %Control @1000nM),inhibition at 1 µM [8],difference in %Control versus compound Ib at 1 µM ([2]; @1000nM),difference in %Control versus compound Ib at 1 µM ([3]; @1000nM),"remaining binding at 1 µM ([3]; @1000nM, read-out: %Control)",other results
"C=CC(=O)N1CCC[C@@H](n2nc(-c3ccc(Oc4ccccc4)cc3)c3c(N)ncnc32)C1 [Compound 1g, Ibrutinib, reference compound]",13%,13%,100%,100%,72%,72%,100%,100%,41%,41%,34%,34%,,,,,,,,,%Control @1000nM [3]: 5.3%; %Control ([3]; @1000nM): 5.3%
"Cc1cnc(S(C)(=O)=O)nc1N1CCCC(n2nc(-c3ccc(Oc4ccccc4)cc3)c3c(N)ncnc32)C1 (stereo not shown) [Compound 8a, 1-(1-(5-Methyl-2-(methylsulfonyl)pyrimidin-4-yl)piperidin-3-yl)-3-(4-phenoxyphenyl)-1H-pyrazolo[3,4-d]pyrimidin-4-amine]",38%,38%,88%,88%,91%,91%,96%,96%,61%,61%,40%,40%,25%,0.1%,0.1%,0.1%,> 99%,-12%,3.3%,8.6%,"remaining binding at 1 µM ([3]; read-out: %Control @1000nM): 8.6%; % difference (compound - Ib %Control) [4]: 19%; % difference (compound - Ib %Control) [5]: -4%; difference in %Control versus compound Ib at 1 µM ([6]; @1000nM): 20%; remaining binding at 1 µM ([9]; @1000nM, read-out: %Control): 96%; remaining binding at 1 µM ([9]; read-out: %Control @1000nM): 96%; IC50 [10]: > 1 µM"
"COC(=O)c1cnc(S(C)(=O)=O)nc1N1CCCC(n2nc(-c3ccc(Oc4ccccc4)cc3)c3c(N)ncnc32)C1 (stereo not shown) [Compound 8b, Methyl 4-(3-(4-Amino-3-(4-phenoxyphenyl)-1H-pyrazolo[3,4-d]pyrimidin-1-yl)piperidin-1-yl)-2-(methylsulfonyl)pyrimidine-5-carboxylate]",65%,65%,99%,99%,100%,100%,96%,96%,71%,71%,33%,33%,52%,0.75%,0.75%,0.75%,> 99%,-1%,20.7%,26%,"remaining binding at 1 µM ([3]; read-out: %Control @1000nM): 26%; % difference (compound - Ib %Control) [4]: 28%; % difference (compound - Ib %Control) [5]: -4%; difference in %Control versus compound Ib at 1 µM ([6]; @1000nM): 30%; remaining binding at 1 µM ([9]; @1000nM, read-out: %Control): 100%; remaining binding at 1 µM ([9]; read-out: %Control @1000nM): 100%; IC50 [10]: > 1 µM"
"CCOC(=O)c1cnc(S(C)(=O)=O)nc1N1CCC[C@@H](n2nc(-c3ccc(Oc4ccccc4)cc3)c3c(N)ncnc32)C1 [Compound 8c, Ethyl (R)-4-(3-(4-Amino-3-(4-phenoxyphenyl)-1H-pyrazolo[3,4-d]pyrimidin-1-yl)piperidin-1-yl)-2-(methylsulfonyl)pyrimidine-5-carboxylate]",36%,36%,98%,98%,100%,100%,100%,100%,93%,93%,40%,40%,23%,18%,18%,18%,82%,-2%,13.7%,19%,"remaining binding at 1 µM ([3]; read-out: %Control @1000nM): 19%; % difference (compound - Ib %Control) [4]: 28%; % difference (compound - Ib %Control) [5]: 0%; difference in %Control versus compound Ib at 1 µM ([6]; @1000nM): 52%; remaining binding at 1 µM ([9]; @1000nM, read-out: %Control): 94%; remaining binding at 1 µM ([9]; read-out: %Control @1000nM): 94%"
"CNC(=O)c1cnc(S(C)(=O)=O)nc1N1CCCC(n2nc(-c3ccc(Oc4ccccc4)cc3)c3c(N)ncnc32)C1 (stereo not shown) [Compound 8d, 4-(3-(4-Amino-3-(4-phenoxyphenyl)-1H-pyrazolo[3,4-d]pyrimidin-1-yl)piperidin-1-yl)-N-methyl-2-(methylsulfonyl)pyrimidine-5-carboxamide]",26%,26%,98%,98%,94%,94%,100%,100%,99%,99%,32%,32%,13%,0%,0%,0%,> 99%,-2%,10.7%,16%,"remaining binding at 1 µM ([3]; read-out: %Control @1000nM): 16%; % difference (compound - Ib %Control) [4]: 22%; % difference (compound - Ib %Control) [5]: 0%; difference in %Control versus compound Ib at 1 µM ([6]; @1000nM): 58%; remaining binding at 1 µM ([9]; @1000nM, read-out: %Control): 100%; remaining binding at 1 µM ([9]; read-out: %Control @1000nM): 100%; IC50 [10]: > 1 µM"
